Results from patent US20250084091A1, “INHIBITORS OF SARS-COV-2” (The Texas A&M University System, priority 2021, published 2025).
Where two headings read alike, the source gives them in different places.

Legend:
HeLa-ACE2 cells = assay: cells; type: cell-based; conditions: Table 2, total cell count in infected plates
[1] = system: SARS-CoV-2 (strain USA-WA1/2020); assay: microbe, parasite or virus in culture; type: cell-based
[2] = Uninfected host cell cytotoxicity counter screen; type: cell-based; conditions: human
Description: Uninfected host cell cytotoxicity counter screen: HeLa-ACE2 cells were maintained as described for the infection assay and seeded in the assay-ready plates at 400 cells/well. Plates were incubated for 24 hours at 37° C. 5% CO2. To assess cell viability, the Image-iT DEAD green reagent was used according to manufacturer instructions. Cells were fixed with 4% paraformaldehyde, and counterstained with DAPI. Fixed cells are imaged as described above.
Viral replication data analysis: Data from the primary screen and the host cell cytotoxicity screen are normalized to neutral (DMSO) […] inhibitor controls (2.5 μM Remdesivir for antiviral effect and 10 μM puromycin for infected host cell toxicity). For the uninfected host cell cytotoxicity counter-screen 40 μM puromycin is used as the positive control. Concentration response experiments will be tested in triplicate.

[3] = target: SARS-CoV-2 main protease (Mpro) (Severe acute respiratory syndrome coronavirus 2, UniProt P0DTD1); assay: biochemical
[4] = Severe acute respiratory syndrome coronavirus 2, Table 2, SARS-CoV-2 infected HeLa-ACE2 cells, read-out: CoV-2 HeLa EC50
[5] = Severe acute respiratory syndrome coronavirus 2, HeLa-ACE2, read-out: CoV-2 HeLa EC50, Table 2, SARS-CoV-2 infected HeLa-ACE2 cells
[6] = Table 2, uninfected cells, 24 hours, read-out: Uninfected HeLa-ACE2 CC50

Row | SMILES | EC50 (HeLa-ACE2 cells) [µM] | EC50 [1, 4] [µM] | CC50 at 24 h [2] [µM] | IC50 ([3]; Table 2, read-out: Enzyme IC50) [µM] | EC50 [1, 5] [µM] | CC50 at 24 h [2, 6] [µM] | IC50 ([3]; Enzyme IC50, Table 2) [µM] | EC50 ([1]; Severe acute respiratory syndrome coronavirus 2, HeLa, Table 3, read-out: CoV-2 HeLa EC50) [µM] | IC50 ([3]; Table 3, select example compounds against mpro, read-out: Enzyme IC50) [µM]
1 | O=C(c1cncnc1)N1CCN(C(c2ccccc2)c2ccccc2)CC1 [AA-577, (4-benzhydrylpiperazin-1-yl)(pyrimidin-5-yl)methanone] | > 9.61 | 8.51 | > 39.8 | 8.3 |  |  |  |  | 
2 | O=C(c1cnccn1)N1CCN(C(c2ccccc2)c2ccccc2)CC1 [AA-579, (4-benzhydrylpiperazin-1-yl)(pyrazin-2-yl)methanone] | > 9.61 |  | > 39.8 | 7.7 | > 9.61 |  |  |  | 
3 | COc1cncc(C(=O)N2CCN(C(c3ccccc3)c3ccccc3)CC2)c1 [AA-589, (4-benzhydrylpiperazin-1-yl)(5-methoxypyridin-3-yl)methanone] | > 9.61 | 1.43 | > 39.8 | 0.48 |  |  |  |  | 
4 | O=C(c1cncc(C(F)(F)F)c1)N1CCN(C(c2ccccc2)c2ccccc2)CC1 [AA-590, (4-benzhydrylpiperazin-1-yl)(5-(trifluoromethyl)pyridin-3-yl)methanone] | > 9.61 | 4.9 | > 39.8 | 0.99 |  |  |  |  | 
5 | O=C(c1cncc(Cl)c1)N1CCN(C(c2ccccc2)c2ccccc2)CC1 [AA-591, (4-benzhydrylpiperazin-1-yl)(5-chloropyridin-3-yl)methanone] | > 9.61 | 0.89 | > 39.8 | 0.3 |  |  |  |  | 
6 | O=C(c1cncc(F)c1)N1CCN(C(c2ccccc2)c2ccccc2)CC1 [AA-592, (4-benzhydrylpiperazin-1-yl)(5-fluoropyridin-3-yl)methanone] | > 9.61 | 2.72 | > 39.8 | 0.97 |  |  |  |  | 
7 | O=C(c1cccnc1)N1C2CCC1CN(C(c1ccccc1)c1ccccc1)C2 [AA-597, (3-benzhydryl-3,8-diazabicyclo[3.2.1]octan-8-yl)(pyridin-3-yl)methanone] | > 9.61 |  |  |  | > 9.61 | > 39.8 | 3.9 |  | 
8 | O=C(c1cccnc1)N1CCN(C(c2ccc(F)cc2)c2ccc(F)cc2)CC1 [AA-598, (4-(bis(4-fluorophenyl)methyl)piperazin-1-yl)(yridine-3-yl)methanone] | > 9.61 |  | > 39.8 | 1.9 | > 9.61 |  |  |  | 
9 | O=C(NC1CN(C(c2ccccc2)c2ccccc2)C1)c1cccnc1 [AA-603, N-(1-benzhydrylazetidin-3-yl)nicotinamide] | > 9.61 |  | > 39.8 |  | > 9.61 |  |  |  | 
10 | O=C(c1cnc(Cl)c(Cl)c1)N1CCN(C(c2ccccc2)c2ccccc2)CC1 [AA-608, (4-benzhydrylpiperazin-1-yl)(5,6-dichloropyridin-3-yl)methanone] | 0.863 | 1.74 | > 39.8 |  |  |  |  |  | 
11 | Cc1ccc(C(=O)N2CCN(C(c3ccccc3)c3ccccc3)CC2)cn1 [AA-612, (4-benzhydrylpiperazin-1-yl)(6-methylpyridin-3-yl)methanone] | 0.863 | 1.74 | > 39.8 |  |  |  |  |  | 
12 | Cc1cncc(C(=O)N2CC3CC(C2)N3C(c2ccccc2)c2ccccc2)c1 [AA-614, (6-benzhydryl-3,6-diazabicyclo[3.1.1]heptan-3-yl)(5-methylpyridin-3-yl)methanone] | > 9.61 |  |  |  | > 9.61 | > 39.8 |  |  | 
13 | Cc1cncc(CN2CCN(C(c3ccccc3)c3ccccc3)CC2=O)c1 [AA-645, 4-benzhydryl-1-((5-methylpyridin-3-yl)methyl)piperazin-2-one] | > 9.61 |  | > 39.8 |  | > 9.61 |  |  |  | 
14 | c1ccc(C(c2ccccc2)N2CCN(c3nccc4ccncc34)CC2)cc1 [AA-649, 1-(4-benzhydrylpiperazin-1-yl)-2,7-naphthyridine] | > 9.61 |  | > 39.8 |  | > 9.61 |  |  |  | 
15 | O=C(c1cnc2ccccc2c1)N1CCN(C(c2ccccc2)c2ccccc2)CC1 [MKP-1167, 3-[4-(diphenylmethyl)piperazine-1-carbonyl]quinoline] | > 9.61 |  | > 39.8 |  | > 9.61 |  |  |  | 
16 | C=C(C)C(=O)N1CCN(C(c2ccccc2)c2ccccc2)CC1 [MKP-1219, 1-[4-(diphenylmethyl)piperazin-1-yl]-2-methylprop-2-en-1-one] | > 9.61 |  | > 39.8 |  | > 9.61 |  |  |  | 
17 | N#Cc1ccc(C(=O)N2CCN(C(c3ccccc3)c3ccccc3)CC2)cn1 [MKP-1229, 5-[4-(diphenylmethyl)piperazine-1-carbonyl]pyridine-2-carbonitrile] | > 9.61 |  | > 39.8 |  | > 9.61 |  |  |  | 

Row | SMILES | EC50 (HeLa-ACE2 cells) [µM] | EC50 [1, 4] [µM] | CC50 at 24 h [2] [µM] | IC50 ([3]; Table 2, read-out: Enzyme IC50) [µM] | EC50 [1, 5] [µM] | CC50 at 24 h [2, 6] [µM] | IC50 ([3]; Enzyme IC50, Table 2) [µM] | EC50 ([1]; Severe acute respiratory syndrome coronavirus 2, HeLa, Table 3, read-out: CoV-2 HeLa EC50) [µM] | IC50 ([3]; Table 3, select example compounds against mpro, read-out: Enzyme IC50) [µM]
18 | N#CC(c1cccnc1)N1CCN(C(c2ccccc2)c2ccccc2)CC1 (stereo not shown) [MKP-1306, 2-[4-(diphenylmethyl)piperazin-1-yl]-2-(pyridin-3-yl)acetonitrile] | > 9.61 |  | > 39.8 |  | > 9.61 |  |  |  | 
19 | Cc1cncc(CN2CCN(C(c3ccccc3)c3ccccc3)CC2)c1 [MKP-1307, 1-(diphenylmethyl)-4-[(5-methylpyridin-3-yl)methyl]piperazine] | > 9.61 |  | > 39.8 |  | > 9.61 |  |  |  | 
20 | Nc1ccc(C(=O)N2CCN(C(c3ccccc3)c3ccccc3)CC2)cn1 [MKP-1309, 5-[4-(diphenylmethyl)piperazine-1-carbonyl]pyridin-2-amine] | > 9.61 |  | > 39.8 |  | > 9.61 |  |  |  | 
21 | O=C(c1cncs1)N1CCN(C(c2ccccc2)c2ccccc2)CC1 [MKP-1318, 1-(diphenylmethyl)-4-(1,3-thiazole-5-carbonyl)piperazine] | > 9.61 |  | > 39.8 |  | > 9.61 |  |  |  | 
22 | Nc1ncc(C(=O)N2CCN(C(c3ccccc3)c3ccccc3)CC2)cn1 [MKP-1322, 5-[4-(diphenylmethyl)piperazine-1-carbonyl]pyrimidin-2-amine] | > 9.61 |  | > 39.8 |  | > 9.61 |  |  |  | 
23 | Cc1cncc(NC(=O)N2CCN(C(c3ccccc3)c3ccccc3)CC2)c1 [MKP-1323, 4-benzhydryl-N-(5-methylpyridin-3-yl)piperazine-1-carboxamide] | > 9.61 |  | 31.7 |  | > 9.61 |  |  |  | 
24 | O=C(c1ccon1)N1CCN(C(c2ccccc2)c2ccccc2)CC1 [MKP-1324, 1-(diphenylmethyl)-4-(1,2-oxazole-3-carbonyl)piperazine] | > 9.61 |  | > 39.8 |  | > 9.61 |  |  |  | 
25 | Cc1oncc1C(=O)N1CCN(C(c2ccccc2)c2ccccc2)CC1 [MKP-1332, (4-benzhydrylpiperazin-1-yl)(5-methylisoxazol-4-yl)methanone] | > 9.61 |  | > 39.8 |  | > 9.61 |  |  |  | 
26 | O=C1CC(C(=O)N2CCC(C(O)(c3ccccc3)c3ccccc3)CC2)CCN1 (stereo not shown) [NZ-789, 4-[4-(hydroxydiphenylmethyl)piperidine-1-carbonyl]piperidin-2-one] | > 9.61 |  | > 39.8 |  | > 9.61 |  |  |  | 
27 | O=C1CC(C(=O)N2CCC(C(O)(c3ccccc3)c3ccccc3)CC2)CN1 (stereo not shown) [NZ-790, 4-[4-(hydroxydiphenylmethyl)piperidine-1-carbonyl]pyrrolidin-2-one] | > 9.61 |  | > 39.8 |  | > 9.61 |  |  |  | 
28 | O=Cc1ccccc1C(=O)N1CCC(C(O)(c2ccccc2)c2ccccc2)CC1 [NZ-791, 2-[4-(hydroxydiphenylmethyl)piperidine-1-carbonyl]benzaldehyde] | > 9.61 |  | > 39.8 |  | > 9.61 |  |  |  | 
29 | O=C1CC(CC(=O)N2CCN(C3c4ccccc4CS(=O)(=O)c4ccccc43)CC2)c2ccccc2N1 (stereo not shown) [NZ-811, 4-[2-[4-(5,5-dioxo-6,11-dihydrobenzo[c][1]benzothiepin-11-yl)piperazin-1-yl]-2-oxo-ethyl]-3,4-dihydro-1H-quinolin-2-one] | > 9.61 |  | > 39.8 |  | > 9.61 |  |  |  | 
30 | O=C(c1cncc2cn[nH]c12)N1CCN(C2c3ccccc3CS(=O)(=O)c3ccccc32)CC1 (stereo not shown) [NZ-822, [4-(5,5-dioxo-6,11-dihydrobenzo[c][1]benzothiepin-11-yl)piperazin-1-yl]-(1H-pyrazolo[4,3-c]pyridin-7-yl)methanone] |  |  |  |  |  |  |  | 0.089 | 0.054
31 | O=C(c1cccnc1Cl)N1CCN(C2c3ccccc3CCc3ccccc32)CC1 [ZS-333, (2-chloro-3-pyridyl)-[4-(2-tricyclo[9.4.0.03,8]pentadeca-1(11),3(8),4,6,12,14-hexaenyl)piperazin-1-yl]methanone] | > 9.61 |  | > 39.8 |  | > 9.61 |  |  |  | 
32 | O=C(O)c1cncc(C(=O)N2CCN(C3c4ccccc4CCc4ccccc43)CC2)c1 [ZS-335, 5-[4-(2-tricyclo[9.4.0.03,8]pentadeca-1(11),3(8),4,6,12,14-hexaenyl)piperazine-1-carbonyl]pyridine-3-carboxylic acid] | > 9.61 |  | > 39.8 |  | > 9.61 |  |  |  | 
33 | O=C(c1ccc(Cl)nc1)N1CCN(C2c3ccccc3CCc3ccccc32)CC1 [ZS-337, (6-chloro-3-pyridyl)-[4-(2-tricyclo[9.4.0.03,8]pentadeca-1(11),3(8),4,6,12,14-hexaenyl)piperazin-1-yl]methanone] | > 9.61 |  | > 39.8 |  | > 9.61 |  |  |  | 
